Holding throughout (format): toxicity, cell-based
Series [1] concerns Fibroblast. The series can be described thus: Incucyte cell viability with human fibroblast. The conditions noted are these: 10 µM, compound concentration 10 uM.
Series [2] relates to U2OS. The series can be described thus: Incucyte cell viability with U2OS. Conditions: human, 10 µM, compound concentration 10 uM.
For series [3], the system named is HEK-293T. The series can be described thus: Incucyte cell viability with HEK293T. Conditions: human, 10 µM, compound concentration 10 uM.
Where [4] appears, read: 0 h, replicate number 2, timepoint 0 hours.
Setting [5] is: 6 h, replicate number 1, timepoint 6 hours.
Setting [6] is: 6 h, replicate number 2, timepoint 6 hours.
[7] abbreviates: 12 h, replicate number 1, timepoint 12 hours.
Setting [8] is: 12 h, replicate number 2, timepoint 12 hours.
Where [9] appears, read: 18 h, replicate number 2, timepoint 18 hours.
Setting [10] is: 24 h, replicate number 2, timepoint 24 hours.
Where [11] appears, read: 0 h, replicate number 1, timepoint 0 hours.
Where [12] appears, read: 24 h, replicate number 1, timepoint 24 hours.
[13] abbreviates: 18 h, replicate number 1, timepoint 18 hours.
Further: unitless GR value; below 1 slowed growth and below 0 cell loss.

In the case of `Cc1nnc2n1-c1sc(CCC(=O)N3CCOCC3)cc1C(c1ccccc1Cl)=NC2` [APAFANT], the “Growth Rate” value was determined as 0.77 in series [1] (setting [4]); 0.26 in series [1] (setting [5]); 0.74 in series [1] (setting [6]); 0.81 in series [1] (setting [7]); 0.51 in series [1] (setting [8]); 0.73 in series [1] (setting [9]). The “Growth Rate” value worked out at 0.95 in series [1] (setting [10]); 0.99 in series [2] (setting [5]); 0.76 in series [2] (setting [6]); 0.88 in series [2] (setting [8]); 0.75 in series [2] (setting [9]); 0.93 in series [2] (setting [10]). Further, in series [3] (setting [11]), the “Growth Rate” value is recorded as 0.99.

Take `Cc1cc(C)cc([C@@H]2c3cc(C)ccc3NC(=O)CN2C(=O)c2ccc(Br)s2)c1`: the “Growth Rate” value in series [1] (setting [11]) was 0.17; in series [1] (setting [4]), 0.74; in series [1] (setting [12]), 1; in series [2] (setting [13]), 0.98; in series [2] (setting [9]), 0.81; in series [2] (setting [10]), 0.89. Moreover, the “Growth Rate” value in series [3] (setting [11]) worked out at 0.35; in series [3] (setting [4]), 0.57; in series [3] (setting [5]), 0.88; in series [3] (setting [7]), 0.65; in series [3] (setting [8]) it was 0.79; in series [3] (setting [13]), 0.61. In addition, the “Growth Rate” value in series [3] (setting [9]) amounted to 0.69; in series [3] (setting [12]), 0.46; in series [3] (setting [10]), 0.7.

For `Cc1cc(Nc2ncc(Cl)c(Nc3ccccc3S(=O)(=O)C(C)C)n2)c(OC(C)C)cc1C1CCNCC1` [CERITINIB], the “Growth Rate” value in series [1] (setting [5]) was -1; in series [1] (setting [6]), -0.97; in series [1] (setting [7]) it was -0.99; in series [1] (setting [8]), -0.78; in series [1] (setting [13]), -0.95; in series [1] (setting [9]) it was -0.6. Moreover, the “Growth Rate” value in series [1] (setting [12]) was -0.88; in series [1] (setting [10]), -0.52; in series [2] (setting [11]) it was -0.86; in series [2] (setting [4]), -0.57; in series [2] (setting [5]), -0.94; in series [2] (setting [6]), -0.91. Moreover, the “Growth Rate” value in series [2] (setting [7]) is given as -0.82; in series [2] (setting [8]) it was -0.74; in series [2] (setting [13]), -0.66; in series [2] (setting [9]), -0.52; in series [2] (setting [12]), -0.58; in series [2] (setting [10]), -0.42. The “Growth Rate” value in series [3] (setting [5]) is listed as -0.87; in series [3] (setting [6]), -0.92; in series [3] (setting [7]) it was -0.62; in series [3] (setting [8]), -0.66; in series [3] (setting [13]) it was -0.45; in series [3] (setting [9]), -0.48. In addition, the “Growth Rate” value was -0.35 in series [3] (setting [12]) and -0.38 in series [3] (setting [10]).

Consider `O=C(c1cc(C2CC2)on1)N(C1CCCCC1)C1CCCCC1`, for which the “Growth Rate” value is 0.81 in series [1] (setting [11]); -0.36 in series [1] (setting [5]); 0.15 in series [1] (setting [7]); 0.97 in series [1] (setting [8]); 0.82 in series [1] (setting [13]); 0.86 in series [1] (setting [9]). The “Growth Rate” value in series [1] (setting [12]) is on record as 0.78; in series [1] (setting [10]), 0.8; in series [2] (setting [11]), 0.64; in series [2] (setting [5]) it was 0.89; in series [2] (setting [6]), 0.71; in series [2] (setting [7]), 0.7. Moreover, the “Growth Rate” value was 1 in series [2] (setting [10]); 0.08 in series [3] (setting [4]); 0.27 in series [3] (setting [5]); 0.55 in series [3] (setting [7]); 0.56 in series [3] (setting [8]); 0.64 in series [3] (setting [13]). Also, the “Growth Rate” value is listed as 0.68 in series [3] (setting [9]), 0.74 in series [3] (setting [12]) and 0.67 in series [3] (setting [10]).

On to `COc1ccccc1N1CCN(CCCCNC(=O)c2ccc3ccccc3c2)CC1.Cl`, for which the “Growth Rate” value is on record as 0.79 in series [1] (setting [11]); -0.14 in series [1] (setting [4]); -0.59 in series [1] (setting [5]); 0.14 in series [1] (setting [6]); 0.23 in series [1] (setting [7]); -0.06 in series [1] (setting [8]). In addition, the “Growth Rate” value in series [1] (setting [9]) is listed as 0.09; in series [1] (setting [12]) it was -0.24; in series [2] (setting [11]), 0.06; in series [2] (setting [5]) it was 0.51; in series [2] (setting [6]) it was 0.78; in series [2] (setting [7]) it was 0.58. The “Growth Rate” value in series [2] (setting [8]) is given as 0.96; in series [2] (setting [13]) it was 0.77; in series [2] (setting [9]), 0.97; in series [2] (setting [12]), 0.81; in series [2] (setting [10]), 0.92; in series [3] (setting [4]) it was 0.97. Moreover, the “Growth Rate” value in series [3] (setting [5]) came out at 0.59; in series [3] (setting [6]) it was 0.65; in series [3] (setting [8]), 0.83; in series [3] (setting [13]) it was 0.54; in series [3] (setting [12]), 0.56; in series [3] (setting [10]), 0.66.

Consider `COc1cc(/C=C/C(=O)NCCn2c(C)cc3ccccc32)cc(OC)c1OC`, for which the “Growth Rate” value in series [1] (setting [11]) was found to be 0.86; in series [1] (setting [5]), 0.79; in series [1] (setting [6]), 0.39; in series [1] (setting [7]), 0.87; in series [1] (setting [8]) it was 0.39; in series [1] (setting [13]) it was 0.66. For the same molecule, the “Growth Rate” value in series [1] (setting [9]) is given as 0.71; in series [1] (setting [12]), 0.67; in series [1] (setting [10]), 0.73; in series [2] (setting [11]), -0.71; in series [2] (setting [4]) it was -0.39; in series [2] (setting [5]) it was 0.34. Further, the “Growth Rate” value in series [2] (setting [6]) is reported as 0.73; in series [2] (setting [7]) it was 0.62; in series [2] (setting [13]) it was 0.51; in series [2] (setting [12]), 0.75; in series [3] (setting [5]) it was 0.24; in series [3] (setting [6]), 0.36. In addition, the “Growth Rate” value in series [3] (setting [7]) was determined as 0.61; in series [3] (setting [8]), 0.51; in series [3] (setting [13]), 0.69; in series [3] (setting [9]), 0.55; in series [3] (setting [12]), 0.75; in series [3] (setting [10]) it was 0.76.

As to `Cl.Clc1ccc2nsnc2c1NC1=NCCN1` [TIZANIDINE HYDROCHLORIDE], the “Growth Rate” value is 0.25 in series [1] (setting [4]); -0.29 in series [1] (setting [5]); 0.72 in series [1] (setting [7]); 0.25 in series [1] (setting [13]); 0.25 in series [1] (setting [12]); 0.36 in series [2] (setting [11]). Also, the “Growth Rate” value in series [2] (setting [4]) is reported as -1; in series [2] (setting [5]) it was 0.31; in series [3] (setting [6]), 0.88; in series [3] (setting [7]), 1; in series [3] (setting [8]), 0.61.

Consider `CCCC(CCC)C(=O)O` [VALPROIC ACID], for which the “Growth Rate” value in series [1] (setting [4]) is 0.88; in series [1] (setting [5]), 0.27; in series [1] (setting [7]), 0.85; in series [2] (setting [11]) it was 0.41; in series [2] (setting [4]), -1; in series [2] (setting [6]), 0.75. Moreover, the “Growth Rate” value in series [2] (setting [7]) came to 0.96; in series [2] (setting [13]) it was 0.9; in series [2] (setting [9]), 0.81; in series [3] (setting [11]), 0.84; in series [3] (setting [4]), 0.39; in series [3] (setting [5]) it was 0.68. The “Growth Rate” value in series [3] (setting [13]) amounted to 0.94; in series [3] (setting [12]) it was 0.87.

Consider `CCOc1c2c(c(OCC)c3ncccc13)CN(c1ccc(CS(=O)(=O)NC(=O)Cc3ccccc3OC)cc1C)C2=O`, for which the “Growth Rate” value in series [1] (setting [11]) is recorded as 0.27; in series [1] (setting [4]), 0.58; in series [1] (setting [5]), 0.32; in series [1] (setting [6]) it was -0.34; in series [1] (setting [7]) it was 0.49; in series [1] (setting [8]), -0.12. For the same molecule, the “Growth Rate” value in series [1] (setting [13]) is on record as 0.23; in series [1] (setting [9]), -0.18; in series [1] (setting [12]) it was -0.06; in series [1] (setting [10]), -0.4; in series [2] (setting [11]), -0.69; in series [2] (setting [6]), 0.75. Also, the “Growth Rate” value is given as 1 in series [2] (setting [9]); 0.82 in series [3] (setting [4]); 0.48 in series [3] (setting [5]); 0.83 in series [3] (setting [7]); 0.9 in series [3] (setting [13]); 1 in series [3] (setting [9]). Moreover, in series [3] (setting [12]), the “Growth Rate” value is listed as 0.87.

On to `O=C(Nc1cc(-c2ccccc2)nn1-c1ccccc1F)c1ccc([N+](=O)[O-])cc1`, for which the “Growth Rate” value in series [1] (setting [5]) is on record as -0.14; in series [1] (setting [6]), 0.55; in series [1] (setting [7]), 0.25; in series [1] (setting [13]) it was 0.09; in series [1] (setting [9]), 0.95; in series [1] (setting [12]), -0.11. The “Growth Rate” value in series [2] (setting [6]) came out at 0.54; in series [2] (setting [8]), 0.84; in series [2] (setting [9]), 0.9; in series [2] (setting [10]) it was 0.95; in series [3] (setting [11]), 0.97; in series [3] (setting [4]), 0.17.

Values taken from ChEMBL document CHEMBL5058564, “EUbOPEN Chemogenomics Library 2 (Incucyte)” (2022).
